For 3 compounds, Km results are on record in patent US4797472A, “New peptide derivatives” (KabiVitrum AB, priority 1986, dated 1989).

One test concerns the target T1, Thrombin bovine (Bos taurus, UniProt P00735).
T1 construct: Thrombin bovine (KabiVitrum) with a constant concentration E0 =1.3 nmol/l; purchased KabiVitrum
Put plainly: Determination of thrombin sensitivity. Format: biochemical. Conditions: Thrombin bovine E0=1.3 nmol/l; substrate 0.1-0.4 mmol/l; trisbuffer pH 8.3, I=0.25, 37° C.

In a further test the target is T2, FXa human (Homo sapiens, UniProt P00742).
T2 construct: from tissue; host or cells: human plasma
In words: Determination of kinetic constants for FXa human (plasma activated with RVV+CaCl2). To be noted: substrate 0.1-0.7 mmol/l, trisbuffer pH 7.0, I=0.25, polybrene, 37° C. The test is classed as biochemical. On the procedure: The kinetic data for the substrates are determined by measuring the initial velocity of hydrolysis (Vi) at different substrate concentrations (Si) and at constant enzyme concentrations (Eo). The binding constant (Km) and the maximum velocity (Vmax) are obtained in known manner from Lineweaver-Burk-plot, then the Kcat is calculated (Hemker H. C. loc. cit.)
The substrates in concentrations between 0.1-0.7 mmol/l (Si) are mixed with FXa human plasma and treated according to the method as described by Aurell; L., et al. (Perspectives in Hemostatis, Ed. Fareed J. et al, New York, Pergamon Press 1981, p. 382-388).
10 μl test plasma, control or standard and 200 μl trisbuffer solution (0.05 mol/l tris, pH 7.0, I=0.25 (NaCl)), polybrene (0.1 g/l) are mixed and incubated at 37° C. for 2-4 minutes. 200 μl substrate (37° C.) in concentrations between 0.1-0.7 mmol/l dissolved in trisbuffer solution prepared according to the above are added. The mixture is well stirred and within 30 seconds 200 μl RVV+CaCl2 (20°-25° C.) are added and the mixture is stirred. The absorbance change is measured at once in a spectrophotometer at 405 nm and 37° C.

The structures appear in SMILES notation. Square brackets hold non-standard residues; d marks the D form. Peptide text beside a SMILES is read from it. * marks the point of attachment. pNA = O=[N+]([O-])c1ccc(N*)cc1; Cbz = O=C(OCc1ccccc1)*

T2 sequence (P00742 235-488 limits assumed): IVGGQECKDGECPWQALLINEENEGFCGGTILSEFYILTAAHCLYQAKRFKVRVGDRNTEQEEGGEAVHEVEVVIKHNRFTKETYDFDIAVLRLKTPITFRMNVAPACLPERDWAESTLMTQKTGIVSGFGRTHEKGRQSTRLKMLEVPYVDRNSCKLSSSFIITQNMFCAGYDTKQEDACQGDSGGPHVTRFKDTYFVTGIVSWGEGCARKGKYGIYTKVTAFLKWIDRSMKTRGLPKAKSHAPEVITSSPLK
T2 sequence (P00742 41-179 partner limits assumed): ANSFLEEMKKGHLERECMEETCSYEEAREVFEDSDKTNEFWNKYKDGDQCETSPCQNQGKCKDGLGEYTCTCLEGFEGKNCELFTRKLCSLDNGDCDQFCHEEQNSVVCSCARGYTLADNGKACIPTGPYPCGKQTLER

Consider `CCS(=O)(=O)N[C@H](CCCNC(=N)N)C(=O)NCC(=O)N[C@@H](CCCNC(=N)N)C(=O)Nc1ccc([N+](=O)[O-])cc1` [Example 4, N^α --Ets--D--Arg--Gly--Arg--pNA.2HCl], for which the values for the Km on Thrombin bovine and on FXa human were 410 µM and 340 µM, respectively.

As to `N=C(N)NCCC[C@H](NC(=O)CNC(=O)[C@@H](CCCNC(=N)N)NC(=O)OCc1ccccc1)C(=O)Nc1ccc([N+](=O)[O-])cc1` [Example 1, N^α --Z--D--Arg--Gly--Arg--pNA.2HCl] (Cbz-[dR]-Gly-Arg-pNA), the figures for the Km on Thrombin bovine and on FXa human were 130 µM and 380 µM, respectively.

On to `COc1ccc(COC(=O)N[C@H](CCCNC(=N)N)C(=O)NCC(=O)N[C@@H](CCCNC(=N)N)C(=O)Nc2ccc([N+](=O)[O-])cc2)cc1` [Example 9, N^α --Moz--D--Arg--Gly--Arg--pNA.2HCl], for which the Km – broadly, the concentration of substrate that gives half-maximal velocity – at Thrombin bovine is 73 µM; on FXa human, 210 µM.
